US9586904B2, “Preparation of (−)-huperzine A” (priority 2013, dated 2017)

Experiment: Solubility of huperzine A-chiral acid salts and of (±)-huperzine A in solvents
Format: physicochemical
Excerpt: This invention first prepared a series of huperzine A-chiral acid salts.

For (±)-huperzine A, the “solubility in most solvents” value (most solvents) was “rather poorly soluble” and the “solubility in various single solvents” value (various single solvents, during salt formation) was “very poor”.
